Test results reported in PMC6100501, “Evaluation of the Antimicrobial Activity and Cytotoxicity of Different Components of Natural Origin Present in Essential Oils” (Molecules : A Journal of Synthetic Chemistry and Natural …, 2018).
In brackets after ≈: the same amount, converted by molar mass. Where two headings read alike, the source gives them in different places.

Tests used:
[1] = test system: intestinal cells; conditions: cited from earlier work
[2] = test system: S. aureus ATCC 6538; conditions: cited from earlier work
[3] = test system: S. aureus; conditions: cited from earlier work
[4] = test system: human dermal fibroblasts; experiment: Cytotoxicity, Blue Cell Viability assay; conditions: 24 h
Experimental: (§1) Human dermal fibroblasts, human epidermal keratinocytes (HaCaT), and THP1 human monocytes were used to evaluate the cytotoxic effects of EO-based compounds.
(§2) Fibroblasts and HaCaT were routinely grown in high-glucose DMEM supplemented with 10% FBS and antibiotic-antimycotic. Monocytes were cultured in RPMI 1640 supplemented with 10% FBS, 1% HEPES, 1% nonessential amino acids, 0.1% 2-mercaptoethanol 50 mM, 1% sodium pyruvate 100 mM, and antibiotic-antimycotic. Macrophages were obtained by the in vitro differentiation of monocytes by adding 1 µM PMA to the cell culture. All cell types were grown in a humidified atmosphere at 37 °C and 5% CO2.
(§3) The cytotoxicity was determined by measuring cell metabolism through the Blue Cell Viability assay. Cells were seeded on MW96 microplates and incubated with the tested molecules (0.004–0.125 mg/mL) for 24 h. Control samples (not treated and chlorhexidine treated) were also analyzed. Then, the reagent was added (10%) and cells were incubated for 4 h at 37 °C. The reduction of the dye by metabolically active cells was monitored in a microplate reader (Multimode Synergy HT Microplate Reader; Biotek, Winooski, WI, USA) at 535/590 nm ex/em. Cell viability was determined by interpolation of the emission data obtained from the treated samples and the control samples (not treated cells, 100% viability).

[5] = test system: macrophages (THP1 human monocytes differentiated with PMA); experiment: Cytotoxicity, Blue Cell Viability assay; conditions: 24 h
Experimental: as §1, §2, §3

[6] = test system: human epidermal keratinocytes (HaCaT); experiment: Cytotoxicity, Blue Cell Viability assay; conditions: 24 h; for subcytotoxic dose: keratinocytes
Experimental: as §1, §2, §3

[7] = test system: S. aureus biofilm; experiment: Biofilm disruption: elimination of preformed biofilm (CFU/mL count); type: cell-based, Staphylococcus aureus; conditions: 0.5 mg/mL, 24 h, vs untreated biofilm
Experimental: S. aureus was grown overnight in TSB until stationary growth phase was reached. At this point, bacteria were adjusted to 10^7 CFU/mL and added to a MW96 microplate and incubated at 37 °C for 16 h without shaking. After incubation, culture medium was discarded and biofilms were washed twice with PBS. In order to determine biofilm formation, Calcofluor White Stain (50 µL) was added to each well and incubated 1 min in the dark at room temperature. After incubation, the stain was removed and biofilms were washed twice with PBS. Samples were air-dried in the dark to be further visualized in an inverted fluorescence microscope (Olympus IX81). The effects of EO molecules (0.25–1 mg/mL) to prevent the formation of biofilm and to disrupt an already formed S. aureus biofilm were studied. EO compounds were added to preformed biofilms and samples were incubated for 24 h at 37 °C without shaking. After incubation, biofilms were disrupted by sonication (15 min, 200 W; Ultrasons, JP Selecta, Barcelona, Spain). Samples were then diluted and seeded onto agar plates to count the viable colonies grown after 24 h of incubation at 37 °C.

[8] = test system: S. aureus ATCC 43300; conditions: cited from earlier work
[9] = test system: E. coli S17 strain; experiment: MIC and MBC determination, broth microdilution method; type: cell-based; conditions: Escherichia coli, S17STRAIN, 24 h, 37 °C, average of 12 replicas
Experimental: (§4) A Gram-negative model E. coli S17 strain was used, which was kindly donated by Dr. Jose Antonio Ainsa, exerting resistance to streptomycin as it is also widely used for transformation purposes. S. aureus ATCC 25923, well-known as not a resistant strain and used in susceptibility tests, was evaluated as a Gram-positive model. Both strains were initially grown overnight in TSB at 37 °C under shaking (150 rpm) obtaining, in the stationary growth phase, 10^8–10^9 CFU/mL. TSA was used for seeding bacteria in an incubator at 37 °C (Memmert, Schwabach, Germany) in order to calculate the bacteria growth (CFU/mL) after treatment with the EO-contained molecules.
(§5) Inhibitory and bactericidal concentrations of active EO molecules were tested in two bacteria cultures, E. coli and S. aureus, following the broth microdilution method. Liquid growth medium containing an inoculum of 10^5 CFU/mL and serial concentrations of the EO compounds (0.1–4 mg/mL) were used. EO compounds were solubilized in culture medium by adding Tween® 80 (1.5–2% v/v) prior to their serial dilution. Once bacteria suspension was in stationary growth (10^8–10^9 CFU/mL), it was further diluted to ~10^5 CFU/mL and added to different concentrations ([…]) of the antimicrobial agents. Then, samples were incubated for 24 h at 37 °C under shaking (150 rpm). After incubation, bacterial suspensions were diluted in PBS and spot-plated on TSA plates to count colonies after incubation at 37 °C for 24 h. Positive control (untreated bacteria) and negative control (chlorhexidine treated bacteria) samples were also tested.

[10] = test system: S. aureus ATCC 25923; experiment: as above; type: cell-based; conditions: Staphylococcus aureus
Experimental: as §4, §5

[11] = test system: fibroblasts; conditions: cited from earlier work
[12] = test system: S. aureus biofilm; experiment: Inhibition of biofilm formation (CFU/mL count); type: cell-based, Staphylococcus aureus; conditions: added to bacteria suspension, 16 h; concentration not printed in the sentence (Figure 5B)
Experimental: To study the effects of the compounds present in the EOs on biofilm formation, those were added to bacterial suspensions (10^7 CFU/mL) in a MW96 microplate and incubated for 16 h at 37 °C without shaking. After incubation, planktonic cells were removed by washing them twice with PBS. Biofilm samples were then sonicated as described above and serially diluted to be further plated on agar. Viable bacteria (CFU/mL) were counted after 24 h of incubation at 37 °C.

[13] = test system: E. coli and S. aureus; experiment: Bactericidal mechanism by SEM, flow cytometry and confocal microscopy; type: cell-based, Escherichia coli, Staphylococcus aureus; conditions: treated at MIC and MBC for 24 h
Experimental: Bacteria morphology before and after treatment with EO molecules was analyzed by SEM as we previously reported. Briefly, logarithmic growth phase E. coli and S. aureus bacteria cultures (~10^5 CFU/mL) were treated with the selected EO compounds at MIC and MBC values and incubated overnight at 37 °C. Following incubation, samples were spin-dried at 600 g and washed twice in PBS (0.1 M). Bacteria were fixed in 2.5% glutaraldehyde for 90 min and subsequently filtered and dehydrated in ethanol solutions series (30, 50, 70, 80, 90, and 100%; twice for 15 min). Finally, samples were air-dried at room temperature and covered with Pt. SEM micrographs were acquired in a SEM Inspect F50 equipment (FEI Co., LMA-INA, Zaragoza, Spain).
In order to study the bactericidal mechanism of the different molecules present in EOs, E. coli and S. aureus bacteria samples (10^7 CFU/mL) were centrifuged at 4400× g for 10 min and resuspended in the different compound solutions at MIC and MBC concentrations following the protocols previously described. Control groups (not treated and chlorhexidine treated bacteria) were also analyzed. All samples were incubated overnight at 37 °C. After propidium iodide (25 µg/mL; Sigma-Aldrich, Munich, Germany) addition, samples were analyzed by flow cytometry in Gallios equipment (Beckman Coulter Company, Cell Separation and Cytometry Unit, CIBA, IIS Aragon, Zaragoza, Spain).
The Live/Dead®BacLight™ bacterial viability kit (Molecular Probes, Fisher Scientific, Hampton, USA) was used to detect bacteria membrane damage. The methodology is based on the double-staining by SYTO9 and propidium iodide as indicated by the manufacturer. […] Samples were then mounted on slides and visualized by confocal microscopy (Leica TCS SP2 Laser Scanning Confocal Microscope, Microscopy Unit, CIBA, IIS Aragon, Zaragoza, Spain). Control samples were also tested as described above.

[14] = test system: tumor cell lines; conditions: cited from earlier work
[15] = Cytotoxicity, Blue Cell Viability assay; conditions: human, human dermal fibroblasts
Experimental: as §1, §2, §3

[16] = test system: human dermal fibroblasts, keratinocytes, and macrophages; conditions: 24 h
Experimental: as §1, §2, §3

[17] = ATCC25923, S. aureus, 24 h, 37 °C, average of 12 replicas, read-out: MBC
[18] = ATCC25923, S. aureus, 24 h, 37 °C, average of 12 replicas, read-out: MIC

SMILES | subcytotoxic dose [6] | MBC [9] | MIC [9] | bactericidal mechanism [13] | MBC [10, 17] | MIC [10, 18] | other results
Cc1ccc(C(C)C)cc1O [Carvacrol] | 0.030 mg/mL | 400 µg/mL (≈ 2.66 mM) | 200 µg/mL (≈ 1.33 mM) | membrane disruption |  |  | subcytotoxic concentration ([1]; intestinal cells): ~ 500 µM; MIC ([2]; converted from 0.015% v/v): approximately 0.147 mg/mL; MIC ([2]; converted from 2.5 µL/mL): approximately 2.45 mg/mL; MIC ([2]; ref 18): 0.015 % v/v; MIC ([2]; ref 21): 2.5 µL/mL; MIC ([2]; ref 22): 0.4 mg/mL (≈ 2.66 mM); MIC ([3]; lower end of literature range): approximately 0.15 mg/mL; MIC ([3]; upper end of literature range): 15000 µg/mL (≈ 99.9 mM); concentration toxic to fibroblasts (affects viability) ([4]; viability below 70% (ISO 10993-5)): ≥ 90 µg/mL; subcytotoxic concentration ([5]; macrophages): 0.090 mg/mL; reduction in bacteria growth (CFU/mL) of preformed biofilm [7]: 3 logs; MIC [8]: 310 µg/mL (≈ 2.06 mM); MBC ([10]; ATCC25923, 24 h): 300 µg/mL (≈ 2 mM); MIC ([10]; ATCC25923, 24 h): 200 µg/mL (≈ 1.33 mM); concentration giving 50% viability ([11]; fibroblasts): ~ 5 µg/mL; decrease in posterior bacterial growth, compound added before biofilm formation [12]: ~6 logs
O=C/C=C/c1ccccc1 [Cinnamaldehyde] |  | 300 µg/mL (≈ 2.27 mM) | 200 µg/mL (≈ 1.51 mM) | membrane disruption | 500 µg/mL (≈ 3.78 mM) | 400 µg/mL (≈ 3.03 mM) | concentration toxic to fibroblasts (affects viability) ([4]; human): 15 µg/mL; dose that reduces viability below 70% ([5]; human): 0.030 mg/mL; dose that reduces viability below 70% ([6]; human): 0.030 mg/mL; reduction in bacteria growth (CFU/mL) of preformed biofilm [7]: around 2 logs; decrease in posterior bacterial growth, compound added before biofilm formation [12]: 4 logs; subcytotoxic concentration [14]: ~ 10 µg/mL
C=CCc1ccc(O)c(OC)c1 [Eugenol] |  | 500 µg/mL (≈ 3.04 mM) | 400 µg/mL (≈ 2.44 mM) |  | 1500 µg/mL (≈ 9.13 mM) | 1300 µg/mL (≈ 7.92 mM) | 
O=C(/C=C/c1ccc(O)c(O)c1)O[C@H](Cc1ccc(O)c(O)c1)C(=O)O [Rosmarinic acid] |  | > 4000 µg/mL | > 4000 µg/mL |  | 4000 µg/mL (≈ 11.1 mM) | 2500 µg/mL (≈ 6.94 mM) | 
CC(C)=CCC/C(C)=C/CC/C(C)=C/CC/C=C(\C)CC/C=C(\C)CCC=C(C)C [Squalene] |  | > 4000 µg/mL | > 4000 µg/mL |  | > 4000 µg/mL | > 4000 µg/mL | 
Cc1ccc(C(C)C)c(O)c1 [Thymol] | 0.060 mg/mL | 300 µg/mL (≈ 2 mM) | 200 µg/mL (≈ 1.33 mM) | membrane disruption | 300 µg/mL (≈ 2 mM) | 200 µg/mL (≈ 1.33 mM) | subcytotoxic concentration [1]: ~ 500 µM; concentration toxic to fibroblasts (affects viability) ([4]; human): ≥ 90 µg/mL; subcytotoxic concentration ([5]; human): 0.060 mg/mL; concentration giving 50% viability [11]: ~ 5 µg/mL
[H]/N=C(\N/C(=N/[H])NCCCCCCNC(=N)NC(=N)Nc1ccc(Cl)cc1)Nc1ccc(Cl)cc1 [chlorhexidine, reference compound] | lower than 0.004 mg/mL |  |  |  |  |  | viability at 24 h, 0.004 mg/mL [15]: > 70%; subcytotoxic concentration ([5]; human): lower than 0.004 mg/mL; subcytotoxic concentration [16]: 0.004 mg/mL
C=C1CC/C=C(\C)CC[C@@H]2[C@@H]1CC2(C)C [β-caryophyllene] |  | > 4000 µg/mL | > 4000 µg/mL |  | > 4000 µg/mL | > 4000 µg/mL | 
